Results: PMC7508583, “Discovery and Preclinical Development of Antigiardiasis Fumagillol Derivatives” (Antimicrobial Agents and Chemotherapy, 2020)
Where two headings read alike, the source gives them in different places.

Tests used:
[1] = test system: G. lamblia GS trophozoites; test: Trophozoite growth inhibition, ATP content (ATPlite) assay; format: cell-based, Giardia lamblia; conditions: for IC50: Giardia duodenalis, 72 h, read-out: Mean [IC50 ± SE(IC50)] G. lamblia GS
Experimental: (§1) Antigiardia assays followed by enzyme inhibition determination facilitated the selection of compounds for permeation and stability studies by in vitro methods, prior to advancing to in vivo studies. Compound potency was evaluated first by measuring G. lamblia trophozoite growth as a function of the compound concentration and calculating the IC50 values. Potency in Entamoeba histolytica trophozoites was also determined because of the early report that fumagillin cured amebiasis ([19]). The intent was to test whether the compounds would be suitable to treat gastrointestinal amebiasis rather than the invasive form of the disease, given that the designed strategy was based on reducing compound permeation across the epithelial cell barrier. […] Trophozoite growth was determined by monitoring the ATP cell content using a high-throughput homogeneous assay developed previously for G. lamblia ([57]). The ATP content serves as a marker of cell integrity since ATP degrades rapidly when cells die and the luminescence signal generated by luciferase requires ATP. The same assay was also adopted in 96-well plates for E. histolytica trophozoite growth measurement, as described in Materials and Methods. A similar E. histolytica trophozoite ATP content assay was described previously ([58]). Fumagillin, TNP-470, and a standard-of-care drug (metronidazole) served as positive controls, and cells without the drug (in the presence of 0.5% dimethyl sulfoxide [DMSO]) served as the negative control.
(§2) Trophozoites of G. lamblia isolates WB and GS were grown anaerobically in borosilicate glass screw-cap culture tubes (Fisher Scientific) at pH 7.0 in Keister’s modified TYI-S-33 medium (ATCC). The medium was supplemented with 10% heat-inactivated bovine serum (Sigma-Aldrich) and 0.05% bovine bile (Sigma-Aldrich). To attain low-oxygen-tension conditions, the tubes were filled to 85% to 90% of their total volume capacity and incubated without shaking at 37°C. Subcultures (2 × 10^5 trophozoites per tube) were made three times a week. Detachment of trophozoites for inoculation was achieved by chilling the cultures on ice for 20 min. Culturing and detachment of metronidazole-resistant G. lamblia assemblage A 713M3 and assemblage B 1279-M1 trophozoites followed the same protocol, except that the growth medium was supplemented with metronidazole, with the concentration gradually being increased to 10 μM.
(§3) The growth inhibition assays were performed in duplicate, once for each compound, for all compounds except fumagillin, which served as a positive control and whose inhibitory ability was measured multiple times as new sets of compounds were tested. All dry compounds except for fumagillin were dissolved in dimethyl sulfoxide (DMSO; Sigma) at a stock concentration of 10 mM and then diluted 1:100 in growth medium to a final compound concentration of 100 μM; fumagillin was diluted to 20 μM. Compound solution aliquots (100 μl) were prepared by 3-fold serial dilutions in growth medium containing 0.5% DMSO and distributed into 96-well assay plates. This was followed by the addition of 10 μl G. lamblia or E. histolytica culture containing 10,000 trophozoites. Fumagillin served as a positive control, and the medium-diluted DMSO alone served as a negative control. The assay plates were placed in a BD GasPak EZ container system (BD Diagnostics) to create an anaerobic growth environment. The sealed containers were incubated at 37°C for 72 h. Following incubation, 70 μl/well of the ATPlite reagent (PerkinElmer) was added to the assay plates for one-step lysis and ATP level detection. The luminescent signals of the assay plates were measured on an EnSpire 2300 plate reader (PerkinElmer). Concentration-response titration points for each compound were fitted to a 4-parameter logistic nonlinear regression model using the KaleidaGraph tool, yielding the IC50 value and standard error (SE).

[2] = test system: E. histolytica HM1:IMSS trophozoites; test: as above; format: cell-based; conditions: Entamoeba histolytica, 72 h, read-out: Mean [IC50 ± SE(IC50)] E. histolytica HM1: IMSS
Experimental: as §1
E. histolytica strain HM1:IMSS trophozoites were grown at 37°C in TYI-S-33 medium supplemented with penicillin (100 U/ml) and streptomycin sulfate (100 μg/ml) ([65]). Trophozoites were grown anaerobically in borosilicate tubes or T25 flasks, and subcultures were made 1 to 2 times a week. Trophozoites were detached for inoculation by chilling the cultures on ice for 20 min.
as §3, with “The sealed containers were incubated at 37°C for 72 h.” left out

[3] = test system: G. lamblia WB trophozoites; test: as above; format: cell-based; conditions: Giardia duodenalis, 72 h, read-out: Mean [IC50 ± SE(IC50)] G. lamblia WB
Experimental: as §1, §2, §3

in vitro = conditions: human; for Papp at 120 min, 10 µM: Caco-2, pH 7.4, Mean ± SE Papp, Caco-2, 10 μM
Text: Next, we tested the permeation of the compounds across polarized Caco-2 cell monolayers, a method that is widely used as an in vitro model of the human small intestinal mucosa to predict the absorption of orally administered drugs ([63], [64]). With noninvasive intestinal infections, there is no need to establish a high plasma concentration. Since a high rate of uptake through the host gut lining could increase compound toxicity, we sought to reduce gut absorption. […] Both apical-to-basal and basal-to-apical permeation values were measured to obtain information about efflux. […] The efflux machinery is currently unknown.
Passage 36 Caco-2 cells were used. The cells were cultured in Dulbecco’s modified Eagle’s medium (DMEM; 5 ml of 100 mM sodium pyruvate, 5 ml of 100× nonessential amino acids, 5 ml of penicillin-streptomycin, and 100 ml of heat-inactivated fetal bovine serum added to 385 ml of DMEM aseptically and mixed thoroughly), pH 7.4, at 37°C in 5% CO2. DMEM (250 μl) was added to the basal compartment of 96-well multiscreen Caco-2 cell plate consisting of high-pore-density polycarbonate (Millipore) with a 0.4-μm pore size and a 0.11-cm^2 active membrane area. The cells were seeded at a density of 12,000 cells/well (0.16 × 10^6 cells/ml) in the apical wells, with one well containing only medium as blank. The Caco-2 cell plate was placed in a CO2 incubator at 37°C for cell proliferation. On the day of assay, the medium was removed, washed twice with Hanks balanced salt solution (HBSS) buffer supplemented with 2% bovine serum albumin (BSA), pH 7.4, and incubated with the HBSS buffer for 30 min at 37°C. Wells with transepithelial electrical resistance values of greater than 230 Ω · cm^2 were selected for the experiments. […] The assay was performed in duplicate.
Seventy-five microliters of the test compounds was added to the apical wells, and 250 μl of HBSS buffer with 2% BSA was added to the basal wells. The plate was incubated in a CO2 incubator with shaking on a plate shaker at 150 rpm for 120 min, after which 25 μl of the basal samples was collected and processed.
Two hundred fifty microliters of test compounds was added to the basal wells, and 75 μl of HBSS buffer with 2% BSA was added to the apical wells. The plate was incubated in a CO2 incubator with shaking on a plate shaker at 150 rpm for 120 min, after which 25 μl of the apical samples was collected and processed.
For sample processing, a single-point calibration curve in HBSS buffer with 2% BSA was used. Donor samples were diluted 1:1 with HBSS containing 2% BSA, and receiver samples were diluted with 1:1 HBSS buffer and precipitated with 200 μl of acetonitrile containing internal standard. The samples were vortexed for 5 min at 1,000 rpm and centrifuged at 4,000 rpm for 10 min. One hundred microliters of the supernatant was diluted with 200 μl of water and analyzed by LC-MS/MS (with a Shimadzu ultrafast liquid chromatograph and an API 4000 LC-MS/MS system).
The apparent permeation coefficients (Papp) were calculated as Papp = (dQ/dT) × (1/C0) × (1/A), where dQ is the amount permeated to the receiver compartment of the 96-well plate, dT is the time of compound incubation, C0 is the initial compound concentration in the donor compartment of the well, and A is the surface area of the monolayer.

[4] = trophozoite growth, ATP content

| Structure (SMILES) | IC50 [1, 4] [nM] | IC50 [2, 4] [nM] | IC50 [3, 4] [nM] | further results |
| --- | --- | --- | --- | --- |
| COC1C(OC(=O)NC(=O)CN2CCCCC2)CCC2(CO2)C1C1(C)OC1CC=C(C)C (centres unmarked) [Compound 2] | 82.5 ± 26.4 | 435 ± 79 | 90.9 ± 34.3 | – |
| COC1C(OC(=O)NC(=O)CN2CCN(C)CC2)CCC2(CO2)C1C1(C)OC1CC=C(C)C (centres unmarked) [Compound 5] | 12.3 ± 2.5 | 117 ± 8.4 | 22.3 ± 1.4 | – |
| COC1C(OC(=O)NC(=O)CN2CCN(CCO)CC2)CCC2(CO2)C1C1(C)OC1CC=C(C)C (centres unmarked) [Compound 6] | 37 ± 4.4 | 223 ± 29.8 | 53.6 ± 10.6 | – |
| CCOC(=O)c1ccc(NC(=O)OC2CCC3(CO3)C(C3(C)OC3CC=C(C)C)C2OC)cc1 (centres unmarked) [Compound 8] | 27.2 ± 18.1 | 54 ± 4.3 | 12.5 ± 4.2 | fold less active than compound 7 ([1]; trophozoite IC50): ~4 fold |
| CO[C@@H]1[C@H](OC(=O)Nc2ccc(C(=O)N3CCC(O)CC3)cc2)CC[C@]2(CO2)[C@H]1[C@@]1(C)O[C@@H]1CC=C(C)C [Compound 10, (3R,4S,5S,6R)-5-methoxy-4-((2R,3R)-2-methyl-3-(3-methylbut-2-en-1-yl)oxiran-2-yl)-1-oxaspiro[2.5]octan-6-yl (4-(4-hydroxypiperidine-1-carbonyl)phenyl)carbamate] | – | – | – | IC50 [1]: 38.4 ± 3.4 nM; IC50 [2]: 32 ± 2.1 nM; IC50 [3]: 171 ± 21 nM |
| CCOC(=O)CNC(=O)OC1CCC2(CO2)C(C2(C)OC2CC=C(C)C)C1OC (centres unmarked) [Compound 13] | – | – | – | IC50 [1]: 1.5 ± 0.3 nM; IC50 [2]: 23.7 ± 2.6 nM; IC50 [3]: 13.1 ± 2.4 nM |
| COC1C(OC(=O)N2CCN(c3ccccc3)CC2)CCC2(CO2)C1C1(C)OC1CC=C(C)C (centres unmarked) [Compound 17] | 109 ± 13.7 | > 100000 | 251 ± 70 | fold loss of potency compared to compound 16 ([1]; G. lamblia trophozoites): 100 fold |
| CCOC(=O)CO[C@@H]1CC[C@]2(CO2)[C@@H]([C@@]2(C)O[C@@H]2CC=C(C)C)[C@@H]1OC [Compound 18, ethyl 2-(((3R,4S,5S,6R)-5-methoxy-4-((2R,3R)-2-methyl-3-(3-methylbut-2-en-1-yl)oxiran-2-yl)-1-oxaspiro[2.5]octan-6-yl)oxy)acetate] | – | – | – | IC50 [1]: 40.1 ± 4.8 nM; IC50 [2]: 318 ± 16 nM; IC50 [3]: 42.6 ± 17.5 nM |
| CO[C@@H]1[C@H](O)CC[C@]2(CO2)[C@H]1[C@@]1(C)O[C@@H]1CC=C(C)C [Fumagillol] | – | – | – | IC50 [1]: 3400 ± 489 nM |
| CC(C)NCC(O)COc1cccc2ccccc12 (centres unmarked) [Propranolol, reference compound] | – | – | – | efflux ratio at 120 min, 10 µM (in vitro; Caco-2, pH 7.4): 0.36; Papp at 120 min, 10 µM (in vitro; apical to basal): 22.6 ± 1.1 ×10⁻⁶ cm/s; Papp at 120 min, 10 µM (in vitro; basal to apical): 8.14 ± 0.28 ×10⁻⁶ cm/s |
| CO[C@@H]1[C@H](OC(=O)NC(=O)CCl)CC[C@]2(CO2)[C@H]1[C@@]1(C)O[C@@H]1CC=C(C)C [TNP-470, (3R,4S,5S,6R)-5-methoxy-4-((2R,3R)-2-methyl-3-(3-methylbut-2-en-1-yl)oxiran-2-yl)-1-oxaspiro[2.5]octan-6-yl (2-chloroacetyl)carbamate, reference compound] | – | – | – | IC50 [1]: 3.4 ± 0.7 nM; IC50 [3]: 2.6 ± 0.2 nM |

Further lines, with some results ahead:

| IC50 [1, 4] [nM] | IC50 [2, 4] [nM] | IC50 [3, 4] [nM] | Structure (SMILES) | further results |
| --- | --- | --- | --- | --- |
| 2.4 ± 0.5 | 4.7 ± 0.5 | 2 ± 0.2 | COC1C(OC(=O)NC(=O)CN(C)C)CCC2(CO2)C1C1(C)OC1CC=C(C)C (centres unmarked) [Compound 1] | – |
| 7 ± 1 | 14.6 ± 2.6 | 3.7 ± 1 | COC1C(OC(=O)Nc2ccccc2)CCC2(CO2)C1C1(C)OC1CC=C(C)C (centres unmarked) [Compound 7] | – |
| 63.2 ± 10 | 94 ± 6.8 | 342 ± 50 | COC1C(OC(=O)Nc2ccc(CC(=O)O)cc2)CCC2(CO2)C1C1(C)OC1CC=C(C)C (centres unmarked) [Compound 12] | – |
| > 100000 | 11200 ± 123 | > 100000 | COC1C(OC(=O)NCC(=O)O)CCC2(CO2)C1C1(C)OC1CC=C(C)C (centres unmarked) [Compound 14] | – |
| 2.9 ± 0.8 | 7.8 ± 0.6 | 4.9 ± 2.2 | COC1C(OC(=O)N2CCCCC2)CCC2(CO2)C1C1(C)OC1CC=C(C)C (centres unmarked) [Compound 15] | – |
| > 2000 | > 2000 | > 2000 | COC1C(OCC(=O)O)CCC2(CO2)C1C1(C)OC1CC=C(C)C (centres unmarked) [Compound 19] | – |
